[ ]: non-standard residue; d: D form. Aib = CC(C)(N)C(=O)O
Columns and labels:
[1] = tested on: Akt (Ser473) phosphorylation; experiment: Akt phosphorylation by Western blot in RBL-2H3/ETFR cells; type: cell-based, rat; details: 0 to 10 minutes
Description: RBL-2H3/ETFR grown to semi-confluence, were exposed to DMEM alone, 10 nM fMLF with/without 10 nM RI-3 at 37 °C in humidified air with 5% CO2. At the indicated times, cells were lysed in RIPA buffer and cell lysate protein content was measured by a colorimetric assay. Western blot analysis of AKT phosphorylation was performed as previously described using anti-phospho-Akt (Ser473) (pAKT) Ab (Cell Signaling) and anti-Akt mAb (R&D System). The effects of fMLF with/without 10 nM RI-3 were analyzed at the level of global kinase phosphorylation, using the dot-blot Proteome Profiler^TM Array Human PhosphoKinase Array Kit (R&D Systems), according to manufacturer’s instructions. Briefly, 300 µg of protein were applied on each membrane and the signals were detected as described for Western blot. The pixel density of each spot was measured using NIH Image 1.62 software. The intensity of positive control spots was used to normalize results between the four membranes. The intensity for each spot was then averaged over the duplicate spots.

cell proliferation = experiment: Cell proliferation, xCELLigence RTCA; type: cell-based; details: 10 µM in growth medium, 85 hr, replaced every 24 hr
Description: Cell proliferation was assessed using the xCELLigence RTCA technology as described. Cells (2 × 10^3/well) were seeded in E-well plates in growth medium and left to growth for 85 hr in the presence or the absence of 10 µM RI-3. For MTS assay, cells seeded on plates in growth medium plus/minus 10 µM RI-3, were allowed to proliferate at 37 °C in 5% CO2 and the absorbance of adherent cells stained with tetrazolium/formazan was assessed with a microplate reader. In both cases, medium with or without RI-3 was replaced every 24 hr. Data are the means ± SD of three independent experiments, performed in triplicate.

Sarc cells = experiment: Growth, vascularization and circulating tumor cells of subcutaneous Sarc tumors in nude mice; type: in vivo, Foxn1nu/nu female nude mice; details: 6 mg/Kg i.p. every day for 10 days
Description: To evaluate the effect of RI-3 on tumor growth and vascularization, Sarc cells were injected, as a single-cell suspension (1 × 10^6 cells in 100 µl of sterile PBS, 97% viability), subcutaneously in the flanks of sixteen six-eight weeks old, Foxn1nu/nu female nude mice (Harlan). Animals were randomized into two 8-mice groups with the treatment group receiving 6 mg/kg RI-3 by intra-peritoneal injection every 24 hr, and the control group receiving an equivalent injected volume of vehicle (PBS) only. Time-dependent average weight was monitored every two days. The length and the width of tumors were measured at different time points with a calliper and volumes were calculated using the formula: ½ × (width)[2] × length (mm). After 10 days, blood samples (at least 500 µL/mouse) from the retro-orbital venous plexus of mice anesthetized with 1% isoflurane were collected using a heparinized capillary tube and processed for determination of the Circulating Tumor Cells (CTCs). Then, the animals were sacrificed, the excised tumors were fixed in buffered formalin and processed for paraffin sectioning. Tumor vascularization was assessed by counting vascular channels harbouring red blood cells on CD31 immuno-stained sections in 5 randomly chosen fields per section, in at least two sections per tumor at x 200 as described. Two additional experiments were carried out with the same experimental design by injecting GFP-tagged Sarc cells (1 × 10^6 cells/mouse) subcutaneously in the flanks of twenty-five six-eight weeks old, Foxn1nu/nu female nude mice (Harlan). Animals were treated with 6 mg/kg RI-3, 6 mg/kg RERF or vehicle by intra-peritoneal injection every 24 hr for 10 or 12 days. Tumor growth and the appearance of positive tumor lesions near tumors and in lungs were monitored as brightly visualized by GFP fluorescence with a MacroFluo fluorescence stereomicroscope (Leica). We searched for the presence of GFP-positive nodules on the entire surface of freshly isolated lungs. Lungs were also sliced at approximately 3-mm thickness to examine the parenchyma in depth, and the positive nodules were acquired at higher magnification.
To quantify CTCs, DNA from nucleated cells of murine blood samples (500 μl/mouse) was extracted using the QIAamp DNA Mini Kit (Qiagen), according to the manufacturer’s protocol. Quantitative RT-PCR (7900 HT Fast Real-Time PCR System, Applied Biosystems) was performed using 18 ng DNA and the SYBR Select Master Mix (Applied Biosystems) as described. Primers to human Alu-sequences [FW 5′-[…]-3′/RV 5′-CCCAGGCTGGAGTGCAGT-3′] were employed to a final concentration of 0.5 μM. The number of CTCs was calculated by comparing the obtained Ct with a standard amplification curve generated in spiking experiments (1 to 50 cells were collected by pipetting under microscopic control) which were included in every run. DNA from murine blood was included as a negative control.

[2] = tested on: osteosarcoma Saos-2 cells; experiment: Matrigel invasion kinetics, xCELLigence RTCA, Saos-2; type: cell-based, human; details: Saos-2, 10 nM, 10% FBS, 20 hr
Description: (§1) This assay was performed using E-well plates and the xCELLigence RTCA technology as described. Bottom wells were coated with 20 µg/well matrigel diluted in serum free medium. Matrigel was allowed to polymerize for 1 hr at 37 °C prior to seeding cells (1 × 10^4 cells/well) suspended in growth medium plus/minus RI peptides. Cells that cross matrigel adhere to the bottom of plates causing impedance changes that are proportional to the number of invading cells, and are expressed as a cell index value. Matrigel invasion was monitored for 20 hr. The experiments were performed three times in quadruplicate.

HT1080 cells = experiment: Matrigel invasion kinetics, xCELLigence RTCA, HT1080; type: cell-based, human
Description: as §1

Which “effect on fMLF-induced Akt phosphorylation” value ([1]; 10 nM fMLF with 10 nM peptide) does the source give for “Ac-[dY][dR][Aib][dR]-NH2 (SMILES CC(=O)N[C@H](Cc1ccc(O)cc1)C(=O)N[C@H](CCCNC(=N)N)C(=O)NC(C)(C)C(=O)N[C@H](CCCNC(=N)N)C(N)=O) [RI-3]” here?
Its value is “consistently decreased”.

And the “effect of peptide alone on Akt phosphorylation” value ([1]; 10 nM, no fMLF)?
Its value is “did not affect Akt phosphorylation”.

And the “effect on cell proliferation and doubling times (xCELLigence)” value (cell proliferation)?
Its value is “no difference was apparent”.

What about the “intra-tumoral microvessel density (CD31) vs vehicle-treated mice” value (Sarc cells) of the same substance?
Its value is “a reduced microvessel density”.

And the “treated mice in which no CTCs were detected” value (Sarc cells)?
Its value is 4/8.

What about the “body weight vs vehicle-treated mice” value (Sarc cells; eight mice) of the same substance?
The value was “comparable”.

And the “volume of tumors after 10 days” value (Sarc cells; eight mice, vehicle 330 +/− 163)?
The value was 185 +/− 82 mm^3.

What about the “circulating tumor cells in blood of CTC-positive mice” value (Sarc cells; Alu Real-Time PCR, vehicle 10.04 +/− 3.7 in 8/8 mice) of the same substance?
Its value is 2.6 +/− 2.7 CTCs/mL.

And the “reduction of matrigel invasion (slope of cell index)” value [2]?
Its value is 24%.

What about the “reduction of matrigel invasion (slope of cell index)” value (HT1080 cells; HT1080, 10 nM, 10% FBS, 20 hr) of the same substance?
The value was 64%.

And the IC50 (HT1080 cells; increasing concentrations plus 10% FBS, matrigel invasion 20 hr, xCELLigence, read-out: concentration at which an overall 50% reduction of cell invasion was reached)?
The IC50 was 10 pM.
